In brackets after ≈: the same amount, converted by molar mass.
Key:
[1] = system: B. distasonis Pen^r, Fox^r, Clind^r 4361; experiment: Anaerobic agar dilution, Wilkens-Chalgren agar; type: cell-based; conditions: Parabacteroides distasonis; anaerobic, inoculum 10^6 cfu/spot, 35° C., 48 hours; read-out: MIC
[2] = system: B. fragilis NCCLS control strain 4419; experiment: Anaerobic agar dilution, Wilkens-Chalgren agar; type: cell-based; conditions: Bacteroides fragilis; anaerobic, inoculum 10^6 cfu/spot, 35° C., 48 hours; read-out: MIC
[3] = system: C. perfringens 2237; experiment: microbe, parasite or virus in culture; type: cell-based; conditions: Clostridium perfringens, 2237, 48 h
[4] = system: B. thetalotamicron Clind^r 4362; experiment: Anaerobic agar dilution, Wilkens-Chalgren agar; type: cell-based; conditions: anaerobic, inoculum 10^6 cfu/spot, 35° C., 48 hours; read-out: MIC
[5] = system: Ser. marcescens 2840; experiment: Agar dilution, trypticase soy agar; conditions: Serratia marcescens, 2840, 20 h
[6] = system: Ent. cloacae P99- 2647; experiment: Agar dilution, trypticase soy agar; conditions: Enterobacter cloacae, P992647, 20 h
[7] = system: Bifidobacterium dentium Fox^r 4427; experiment: Anaerobic agar dilution, Wilkens-Chalgren agar; type: cell-based; conditions: 48 h
[8] = system: Veillonella alcalescens 1952; experiment: Anaerobic agar dilution, Wilkens-Chalgren agar; type: cell-based; conditions: Veillonella parvula, 1952; anaerobic, inoculum 10^6 cfu/spot, 35° C., 48 hours; read-out: MIC
[9] = system: E. coli TEM 2+ DC2 4352; experiment: Agar dilution, trypticase soy agar; conditions: Escherichia coli, 20 h
[10] = system: C. perfringens 3511; experiment: microbe, parasite or virus in culture; type: cell-based; conditions: Clostridium perfringens, 3511, 48 h
[11] = system: Fusobacterium mortiferum Fox^r 3345; experiment: Anaerobic agar dilution, Wilkens-Chalgren agar; type: cell-based; conditions: anaerobic, inoculum 10^6 cfu/spot, 35° C., 48 hours, read-out: MIC
[12] = system: Actinomyces naeslundii 4053; experiment: Anaerobic agar dilution, Wilkens-Chalgren agar; type: cell-based; conditions: Actinomyces naeslundii, 4053; anaerobic, inoculum 10^6 cfu/spot, 35° C., 48 hours; read-out: MIC
[13] = system: C. perfringens 3513; experiment: microbe, parasite or virus in culture; type: cell-based; conditions: Clostridium perfringens, 3513, 48 h
[14] = system: C. perfringens 3509; experiment: microbe, parasite or virus in culture; type: cell-based; conditions: Clostridium perfringens, 3509, 48 h
[15] = system: Prot. vulgaris 2829; experiment: Agar dilution, trypticase soy agar; conditions: Proteus vulgaris, 2829, 20 h
[16] = system: Prot. morganii Sm^r 2833; experiment: Agar dilution, trypticase soy agar; conditions: Morganella morganii, 20 h
[17] = system: B. asaccharolyticus 4271; experiment: Anaerobic agar dilution, Wilkens-Chalgren agar; type: cell-based; conditions: Porphyromonas asaccharolytica, 4271; anaerobic, inoculum 10^6 cfu/spot, 35° C., 48 hours; read-out: MIC
[18] = system: K. pneumoniae 4005; experiment: Agar dilution, trypticase soy agar; conditions: Klebsiella pneumoniae, 4005, 20 h
[19] = system: Eubacterium limosum 3344; experiment: Anaerobic agar dilution, Wilkens-Chalgren agar; type: cell-based; conditions: inoculum 10^6 cfu/spot, 35° C., 48 hours
Protocol: (a) Wilkens-Chalgren agar was used instead of antagonist-free medium (Roche);
(b) The inoculum/spot was about 10^6 instead of about 10^4 ;
(c) The incubation period was for 48 hours, not 24 hours; and
(d) Incubations were performed under anaerobic conditions.

[20] = system: E. coli 2891; experiment: Agar dilution, trypticase soy agar; conditions: Escherichia coli, 2891, 20 h
[21] = system: S. aureus Gm^r Meth^r 4310; experiment: Agar dilution, trypticase soy agar; conditions: Staphylococcus aureus, 20 h
[22] = system: C. difficile Clind^r 4273; experiment: Anaerobic agar dilution, Wilkens-Chalgren agar; type: cell-based; conditions: Clostridioides difficile; anaerobic, inoculum 10^6 cfu/spot, 35° C., 48 hours; read-out: MIC
[23] = system: B. fragilis Clind^r, Fox^r, Tet^r 4360; experiment: Anaerobic agar dilution, Wilkens-Chalgren agar; type: cell-based; conditions: Bacteroides fragilis; anaerobic, inoculum 10^6 cfu/spot, 35° C., 48 hours; read-out: MIC
[24] = system: E. coli TEM 2+ 4351; experiment: Agar dilution, trypticase soy agar; conditions: Escherichia coli, 20 h
[25] = system: C. perfringens 3510; experiment: microbe, parasite or virus in culture; type: cell-based; conditions: Clostridium perfringens, 3510, 48 h
[26] = system: C. perfringens 3512; experiment: microbe, parasite or virus in culture; type: cell-based; conditions: Clostridium perfringens, 3512, 48 h
[27] = system: C. ramosum 4272; experiment: Anaerobic agar dilution, Wilkens-Chalgren agar; type: cell-based; conditions: Thomasclavelia ramosa, 4272; anaerobic, inoculum 10^6 cfu/spot, 35° C., 48 hours; read-out: MIC
[28] = system: Prot. mirabilis Gm^r 2830; experiment: Agar dilution, trypticase soy agar; conditions: Proteus mirabilis, 20 h
[29] = system: Propionibacterium acnes 2249; experiment: Anaerobic agar dilution, Wilkens-Chalgren agar; type: cell-based; conditions: Cutibacterium acnes, 2249; anaerobic, inoculum 10^6 cfu/spot, 35° C., 48 hours; read-out: MIC
[30] = system: B. distasonis Pen^r, Fox^r 3445; experiment: Anaerobic agar dilution, Wilkens-Chalgren agar; type: cell-based; conditions: Parabacteroides distasonis, 48 h
[31] = system: Sal. typhimurium 3860; experiment: Agar dilution, trypticase soy agar; conditions: Salmonella enterica, 20 h
[32] = system: Ps. aeruginosa RPL11+ 3350; experiment: Agar dilution, trypticase soy agar; conditions: Pseudomonas aeruginosa, 20 h
[33] = system: C. difficile Fox^r 4380; experiment: Anaerobic agar dilution, Wilkens-Chalgren agar; type: cell-based; conditions: Clostridioides difficile; anaerobic, inoculum 10^6 cfu/spot, 35° C., 48 hours; read-out: MIC
[34] = system: B. fragilis Pen^r 3214; experiment: Anaerobic agar dilution, Wilkens-Chalgren agar; type: cell-based; conditions: Bacteroides fragilis; anaerobic, inoculum 10^6 cfu/spot, 35° C., 48 hours; read-out: MIC
[35] = system: B. ovatus Pen^r 3248; experiment: Anaerobic agar dilution, Wilkens-Chalgren agar; type: cell-based; conditions: Bacteroides ovatus; anaerobic, inoculum 10^6 cfu/spot, 35° C., 48 hours; read-out: MIC
[36] = system: K. pneumoniae K1+ 4354; experiment: Agar dilution, trypticase soy agar; conditions: Klebsiella pneumoniae, 20 h
[37] = system: Ent. cloacae P99+ 2646; experiment: Agar dilution, trypticase soy agar; conditions: Enterobacter cloacae, 20 h
[38] = system: Bacteroides fragilis Met^r . Pen^r 4324; experiment: Anaerobic agar dilution, Wilkens-Chalgren agar; type: cell-based; conditions: anaerobic, inoculum 10^6 cfu/spot, 35° C., 48 hours, read-out: MIC
[39] = system: Peptostreptococcus anaerobius 3282; experiment: Anaerobic agar dilution, Wilkens-Chalgren agar; type: cell-based; conditions: Peptostreptococcus anaerobius, 3282; anaerobic, inoculum 10^6 cfu/spot, 35° C., 48 hours; read-out: MIC
[40] = system: Clostridium perfringens NCCLS control strain 4418; experiment: microbe, parasite or virus in culture; type: cell-based; conditions: 48 h
[41] = system: C. perfringens 3508; experiment: microbe, parasite or virus in culture; type: cell-based; conditions: Clostridium perfringens, 3508, 48 h
[42] = system: B. thetalotamicron Clind^r, NCCLS control strain 4420; experiment: Anaerobic agar dilution, Wilkens-Chalgren agar; type: cell-based; conditions: anaerobic, inoculum 10^6 cfu/spot, 35° C., 48 hours; read-out: MIC
[43] = system: Ent. cloacae P99- 2647; experiment: Agar dilution, antagonist-free medium; conditions: Enterobacter cloacae, P992647, 20 h
[44] = system: E. coli TEM 2+ 4351; experiment: Agar dilution, antagonist-free medium; conditions: Escherichia coli, 20 h
[45] = system: Prot. vulgaris 2829; experiment: Agar dilution, antagonist-free medium; conditions: Proteus vulgaris, 2829, 20 h
[46] = system: E. coli 2891; experiment: Agar dilution, antagonist-free medium; conditions: Escherichia coli, 2891, 20 h
[47] = system: E. coli DC2 4353; experiment: Agar dilution, antagonist-free medium; conditions: Escherichia coli, DC24353, 20 h
[48] = system: Ser. marcescens 2840; experiment: Agar dilution, antagonist-free medium; conditions: Serratia marcescens, 2840, 20 h
[49] = system: Sal. typhimurium 3860; experiment: Agar dilution, antagonist-free medium; conditions: Salmonella enterica, 20 h
[50] = system: Staph. aureus 2865; experiment: Agar dilution, antagonist-free medium; conditions: Staphylococcus aureus, 2865, 20 h
[51] = system: Ps. aeruginosa 4279; experiment: Agar dilution, antagonist-free medium; conditions: Pseudomonas aeruginosa, 4279, 20 h

Q: Which results are given for `CO[C@@]1(NC(=O)Cc2cccs2)C(=O)N2C(C(=O)O)=C(COC(N)=O)CS[C@@H]21` [CEFOXITIN, Cefoxitin, reference compound]?
A: MIC [1]: 32 µg/mL (≈ 74.9 µM); MIC [2]: 8 µg/mL (≈ 18.7 µM); MIC [3]: 2 µg/mL (≈ 4.68 µM); MIC [4]: 32 µg/mL (≈ 74.9 µM); MIC [5]: 32 µg/mL (≈ 74.9 µM); MIC [6]: 8 µg/mL (≈ 18.7 µM); MIC [7]: 64 µg/mL (≈ 150 µM); MIC [8]: 1 µg/mL (≈ 2.34 µM); MIC [9]: 2 µg/mL (≈ 4.68 µM); MIC [10]: 1 µg/mL (≈ 2.34 µM); MIC [11]: 32 µg/mL (≈ 74.9 µM); MIC [12]: 0.015 µg/mL (≈ 0.0351 µM); MIC [13]: 2 µg/mL (≈ 4.68 µM); MIC [14]: 0.25 µg/mL (≈ 0.585 µM); MIC [15]: 4 µg/mL (≈ 9.36 µM); MIC [16]: 8 µg/mL (≈ 18.7 µM); MIC [17]: 0.5 µg/mL (≈ 1.17 µM); MIC [18]: 2 µg/mL (≈ 4.68 µM); MIC [19]: 1 µg/mL (≈ 2.34 µM); MIC [20]: 64 µg/mL (≈ 150 µM); MIC [21]: > 128 µg/mL; MIC [22]: 4 µg/mL (≈ 9.36 µM); MIC [23]: 32 µg/mL (≈ 74.9 µM); MIC [24]: 4 µg/mL (≈ 9.36 µM); MIC [25]: 0.5 µg/mL (≈ 1.17 µM); MIC [26]: 1 µg/mL (≈ 2.34 µM); MIC [27]: 32 µg/mL (≈ 74.9 µM); MIC [28]: 4 µg/mL (≈ 9.36 µM); MIC [29]: 0.06 µg/mL (≈ 0.14 µM); MIC [30]: 128 µg/mL (≈ 299 µM); MIC [31]: 4 µg/mL (≈ 9.36 µM); MIC [32]: > 128 µg/mL; MIC [33]: 64 µg/mL (≈ 150 µM); MIC [34]: 16 µg/mL (≈ 37.4 µM); MIC [35]: 32 µg/mL (≈ 74.9 µM); MIC [36]: 4 µg/mL (≈ 9.36 µM); MIC [37]: 128 µg/mL (≈ 299 µM); MIC [38]: 4 µg/mL (≈ 9.36 µM); MIC [39]: 1 µg/mL (≈ 2.34 µM); MIC [40]: 1 µg/mL (≈ 2.34 µM); MIC [41]: 0.25 µg/mL (≈ 0.585 µM); MIC [42]: 32 µg/mL (≈ 74.9 µM)

Q: With `N[C@@H]1CONC1=O` [D-Cycloserine, D-cycloserine, reference compound] as the compound, how does the MIC [43] read?
A: 4 µg/mL (≈ 39.2 µM)

Q: And the MIC [44]?
A: 2 µg/mL (≈ 19.6 µM)

Q: And the MIC [45]?
A: 32 µg/mL (≈ 313 µM)

Q: And the MIC [46]?
A: 4 µg/mL (≈ 39.2 µM)

Q: And the MIC [47]?
A: 8 µg/mL (≈ 78.4 µM)

Q: What about the MIC [48] of the same compound?
A: > 256 µg/mL

Q: What about the MIC [49] of the same compound?
A: 4 µg/mL (≈ 39.2 µM)

Q: And the MIC [50]?
A: 2 µg/mL (≈ 19.6 µM)

Q: What about the MIC [51] of the same compound?
A: 16 µg/mL (≈ 157 µM)

Reference: US4956294A, “Culture of Streptoverticillium synroense for producing an antibacterial” (Merck & Co., Inc., priority 1989, dated 1990)
